Patent publication US20060174366A1, “Use of ahas mutant genes as selection marker in potato transformation” (priority 2002, published 2006)

Key:
[1] = system: Potato leaf segments of varieties Prevalent, Producent, Karnico and Desiree; test: Investigation of selection pressure: lethality of Imazamox concentrations on shoot regeneration from untransformed leaf segments; type: cell-based, Solanum tuberosum
Experimental: Potato leaf segments from in vitro propagated plants of four different potato varieties Prevalent, Producent, Karnico and Desiree were tested for natural tolerance on different concentrations of the imidazolinone herbicide Imazamox. It is important to choose a selection concentration at which the potato leaf tissue is viable long enough to regenerate shoots but have a high enough concentration to prevent the regeneration of untransformed shoots. Doses 0.1, 0.5, 1, 5, 10, 20, 30 and 50 μM Imazamox were tested.
Fully expended potato leaves are diagonally cut in 2 pieces and precultivated on MC-plates for 2 to 3 days at 23 to 24° C., see table 1.
The leaf tissues are transferred on MS300 medium for additional 2 days and cultivated under modest light at 23 to 24° C. simulating a co-cultivation step. Subsequently the leaf segments are moved to MS400 plates containing 400 mg/l Claforan. Claforan is added in order to suppress growth of Agrobacterium tumfaciens. Therefore the regeneration of shoots on different concentrations of Imazamox need to be monitored in presence of Claforan. Selection is taking place within 4 to 5 days when the explants are moved to MS400 medium supplemented with 400mg/l Claforan and Imazamox at above concentrations.
The explants are transferred to fresh selection medium every fortnight.
Leaf tissues were tested for the use of the AHAS resistance gene contained in SEQ ID No. 1 and for the selection of transgenic potato plant cells as described above. Four different potato cultivars Prevalent, Producent, Karnico and Desiree were cultivated on different concentrations of Imazamox, an imidazolinones type herbicides. It is essential to use the proper concentration for selection to yield an acceptable number of shoots per explant without high escape rate. The lethality of various Imazamox concentrations on regeneration was evaluated.
Lethal dose for regeneration was detected within 0.1 to 1 μM ranges of concentrations. Slight variation in lethality was detected between varieties. […]

[2] = system: in vitro potato leaf segments; test: Effect of Imazamox on plant cell growth in tissue culture; type: cell-based, Solanum tuberosum
Source text: Leaf segments are the explants of choice used in Agrobacterium mediated potato transformation. Transgenic plants are regenerated via direct or indirect organogenesis under selective conditions. Cytokinines as growth hormones are mainly involved in provoking cell division and adventitious bud formation in in vitro potato leaf segments. […] This phenomenon classifies Imazamox as a unique selection agent that is combining both lethality for non-transgenic cells and improved growth for transgenic cells.

## COCc1cnc(C2=NC(C)(C(C)C)C(=O)N2)c(C(=O)O)c1 (racemic) [Imazamox, (RS)-2-(4-isopropyl-4-methyl-5-oxo-2-imidazolin-2-yl)-5-methoxymethylnicotinic acid]
[1]; 0.3 μM Imazamox
  lethality in regeneration: 80%
[1]; 0.5 μM Imazamox
  lethality in regeneration: 100%
[1]; 0.5 μM Imazamox included in the medium
  Regeneration: No regeneration
[2]; applied in low concentrations
  effect in tissue culture: cytokinine-like effect
[2]; at higher concentrations
  effect in tissue culture: acting as an herbicide
